≈ marks a conversion by molar mass, not a printed value. Like-named read-outs stand apart in the source and are kept apart here.
Assays:
[1] = Solubility of the active (fluralaner) in formulation solvents; type: physicochemical; conditions: organic solvent or mixture
[2] = Blood plasma pharmacokinetic profile of isoxazoline compounds in two chewable formulations after a single oral administration in dogs (Example 8); type: in vivo; conditions: beagle dogs; for Cmax / Tmax / AUC(0-t): dog, plasma; for AUC(0-t): read-out: AUC(0-168h)
Text: Pharmacokinetic Profile Following Oral Administration of Chewable Formulations of Isoxazoline Compounds
The objective of this study is to compare the blood plasma pharmacokinetic profile of three different isoxazoline compounds in two different chewable formulations after a single oral (PO) administration of in dogs.
The following compounds were formulated according to the invention. Specifically, the isoxazoline compound was first dissolved in a solvent, i.e. 2-pyrrolidone. This drug solution was then adsorbed onto the solid carrier, i.e. microcrystalline cellulose, which was incorporated into a solid oral dosage form as described in the specification with excipients as described in Table 3. Comparative example formulation ID No. 13-009, 13-011 and 13-013 contain the active drug substance incorporated as a solid that was manufactured as described in general in the specification without prior pre-dissolving the active ingredient and adsorption to the solid carrier.
The test compounds were administered orally to four beagle dogs per dose group for a total of twenty-four dogs.
Each animal was administered the tablet or chew by placing it in the back of the oral cavity over the tongue to initiate swallowing.
Plasma was obtained from the collected blood samples and analyzed for concentrations of the test compounds. Individual blood samples (approximately 4.5 mL per sample) were taken via jugular venipuncture into sodium-citrate tubes from all dogs for drug analysis. Blood samples were collected at the following time points: pretreatment (within 2 h prior to dosing) and approximately 1, 2, 4, 6, 8, 24, 48, 72 hours after dosing (15 min). A final blood sample was taken from each dog on Day 7 (2 h after the time of dosing on Day 0).
Pharmacokinetic analysis was performed on the plasma concentration data with the computer program Pharsight WinNonlin Enterprise, Version 4.0.1, or more recent update (Model 200: plasma data, extravascular input).

[3] = single oral dose 10 mg/kg, Alternate Chew (compound dissolved in 2-pyrrolidone)
[4] = single oral dose 25 mg/kg, Control Chew (compound not dissolved)

solubility ([1]; 2-pyrrolidone (2-pyrol), solvent 2-pyrrolidone, read-out: solubility in 2-pyrrolidone (2-pyrol)) [mg/mL]	solubility ([1]; dimethylacetamide (DMAC), solvent DMAC, read-out: solubility in dimethylacetamide (DMAC)) [mg/mL]	SMILES	Cmax/Dose [2, 3] [kg·ng/mL/mg]	Cmax/Dose [2, 4] [kg·ng/mL/mg]	Cmax [2, 3] [ng/mL]	Cmax [2, 4] [ng/mL]	AUC(0-168h)/Dose [2, 3] [kg·ng·h/mL/mg]	AUC(0-168h)/Dose [2, 4] [kg·ng·h/mL/mg]	Tmax [2, 3] [h]	AUC(0-t) [2, 3] [µg·h/mL]	Tmax [2, 4] [h]	AUC(0-t) [2, 4] [µg·h/mL]
775 (≈ 1390 mM)	792 (≈ 1420 mM)	Cc1cc(C2=NOC(c3cc(Cl)cc(Cl)c3)(C(F)(F)F)C2)ccc1C(=O)NCC(=O)NCC(F)(F)F (centres unmarked) [Compound A-1443, 4-[5-(3,5-Dichlorophenyl)-5-trifluoromethyl-4,5-dihydroisoxazol-3-yl]-2-methyl-N-[(2,2,2-trifluoro-ethylcarbamoyl)-methyl]-benzamide]										
		Cc1cc(C2=NOC(c3cc(Cl)cc(Cl)c3)(C(F)(F)F)C2)ccc1C(=O)NC1CSC1 (centres unmarked) [Compound A]	1.71	0.768	17.1	19.2						
		O=C(CNC(=O)c1ccc(C2=NOC(c3cc(Cl)cc(C(F)(F)F)c3)(C(F)(F)F)C2)c2ccccc12)NCC(F)(F)F (centres unmarked) [Compound B]	321	174	3210	4340	33416	16661	15.5	334	5	417
		Cc1cc(C2=NOC(c3cc(Cl)cc(Cl)c3)(C(F)(F)F)C2)sc1C(=O)NCC(=O)NCC(F)(F)F (centres unmarked) [Compound C]	254	63.5	2540	1590	32660	6573	15.5	327	27.5	164

Source: patent US11712416B2, “Solid oral pharmaceutical compositions for isoxazoline compounds” (Intervet Inc., priority 2012, dated 2023)
